From PubChem BioAssay (NCI)
Values joined by “and” are separate entries in the source; they are usually repeats but may differ in a detail not shown here. Equal entries are not always repeated.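 Briefly, cells in 96-well plates were exposed to five compound concentrations for 48 h, and endpoints were estimated by linear interpolation. Here, GI50 denotes the concentration required for 50% inhibition of growth. TGI is the concentration that stops growth completely.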

Assays:
Test in all cases: growth of human tumour cells (NCI), 48 h
SF-268 CNS = system: SF-268 CNS
TK-10 renal = system: TK-10 renal
CAKI-1 renal = system: CAKI-1 renal
MDA-MB-435 = system: MDA-MB-435
MCF7 breast = system: MCF7 breast
A549 NSCLC = system: A549 NSCLC
EKVX NSCLC = system: EKVX NSCLC
ACHN renal = system: ACHN renal
HCT-116 colon = system: HCT-116 colon
KM12 colon = system: KM12 colon

N#CC1=C(N)Oc2c(sc3c(F)cccc23)C1c1ccc(F)cc1 (stereo not given)
GI50 (SF-268 CNS): 1.13 µM
TGI (SF-268 CNS): 15.3 µM
GI50 (TK-10 renal): 8.24 µM
TGI (TK-10 renal): 25.3 µM
GI50 (CAKI-1 renal): 0.508 µM
TGI (CAKI-1 renal): 15.9 µM
GI50 (MDA-MB-435): 0.212 µM
TGI (MDA-MB-435): 0.631 µM
GI50 (MCF7 breast): 0.391 µM
TGI (MCF7 breast): 12.4 µM
GI50 (A549 NSCLC): 1.05 µM
TGI (A549 NSCLC): 19.1 µM
GI50 (EKVX NSCLC): 3.24 µM
TGI (EKVX NSCLC): 20.2 µM
GI50 (ACHN renal): 0.752 µM
TGI (ACHN renal): 16.1 µM
GI50 (HCT-116 colon): 0.492 µM
TGI (HCT-116 colon): 13 µM
GI50 (KM12 colon): 0.465 µM
TGI (KM12 colon): 12.8 µM

CC1/C(=N/Nc2ccc([N+](=O)[O-])cc2)CC2C3(C)CCC2(C(C)C(=O)O)C(=O)C13 (stereo not given)
GI50 (SF-268 CNS): 33.5 µM
TGI (SF-268 CNS): > 100 µM
GI50 (TK-10 renal): 9.98 µM
TGI (TK-10 renal): > 100 µM
GI50 (CAKI-1 renal): 5.95 µM
TGI (CAKI-1 renal): > 100 µM
GI50 (MDA-MB-435): 27.4 µM
TGI (MDA-MB-435): > 100 µM
GI50 (MCF7 breast): 7.17 µM
TGI (MCF7 breast): > 100 µM
GI50 (A549 NSCLC): 5.5 µM
TGI (A549 NSCLC): > 100 µM
GI50 (EKVX NSCLC): 3.36 µM
TGI (EKVX NSCLC): > 100 µM
GI50 (ACHN renal): 6.33 µM
TGI (ACHN renal): > 100 µM
GI50 (HCT-116 colon): 6.97 µM
TGI (HCT-116 colon): > 100 µM
GI50 (KM12 colon): 11.3 µM
TGI (KM12 colon): > 100 µM

Cc1ccc(S(=O)(=O)Nc2nc3ccccc3nc2Nc2ccc3nsnc3c2)cc1
GI50 (SF-268 CNS): 3.93 µM and 4.35 µM
TGI (SF-268 CNS): > 100 µM
GI50 (TK-10 renal): 5.18 µM and 3.14 µM
TGI (TK-10 renal): > 100 µM
GI50 (CAKI-1 renal): 3.36 µM and 2.33 µM
TGI (CAKI-1 renal): > 100 µM
GI50 (MDA-MB-435): 4.09 µM and 3.15 µM
TGI (MDA-MB-435): > 100 µM
GI50 (MCF7 breast): 6.55 µM and 4.6 µM
TGI (MCF7 breast): > 100 µM
GI50 (A549 NSCLC): 3.68 µM and 3.5 µM
TGI (A549 NSCLC): > 100 µM
GI50 (EKVX NSCLC): 4.03 µM and 3.6 µM
TGI (EKVX NSCLC): > 100 µM
GI50 (ACHN renal): 4.01 µM and 3.75 µM
TGI (ACHN renal): > 100 µM
GI50 (HCT-116 colon): 3.52 µM
TGI (HCT-116 colon): 15.4 µM and > 100 µM
GI50 (KM12 colon): 4.3 µM
TGI (KM12 colon): > 100 µM

O=P1(O)c2ccccc2Nc2cc(C(F)(F)F)ccc21
TGI (SF-268 CNS): > 100 µM
TGI (TK-10 renal): > 100 µM
TGI (CAKI-1 renal): > 100 µM
TGI (MDA-MB-435): > 100 µM
TGI (MCF7 breast): > 100 µM
TGI (A549 NSCLC): > 100 µM
TGI (EKVX NSCLC): > 100 µM
TGI (ACHN renal): > 100 µM
TGI (HCT-116 colon): > 100 µM
TGI (KM12 colon): > 100 µM

C=C1CC[C@@H]2[C@](C)(COC(C)=O)[C@H](OC(C)=O)CC[C@@]2(C)[C@@H]1C/C=C1/C(=O)OC[C@H]1OC(C)=O
GI50 (SF-268 CNS): 8.56 µM
TGI (SF-268 CNS): 22.8 µM
GI50 (TK-10 renal): 3.81 µM
TGI (TK-10 renal): 13.3 µM
GI50 (CAKI-1 renal): 6.67 µM
TGI (CAKI-1 renal): 19.6 µM
GI50 (MDA-MB-435): 2.63 µM
TGI (MDA-MB-435): 10.1 µM
GI50 (MCF7 breast): 1.83 µM
TGI (MCF7 breast): 6.79 µM
GI50 (A549 NSCLC): 11.9 µM
TGI (A549 NSCLC): 30.7 µM
GI50 (EKVX NSCLC): 12.9 µM
TGI (EKVX NSCLC): 25.6 µM
GI50 (ACHN renal): 1.71 µM
TGI (ACHN renal): 3.22 µM
GI50 (HCT-116 colon): 1.45 µM
TGI (HCT-116 colon): 2.98 µM
GI50 (KM12 colon): 10.5 µM
TGI (KM12 colon): 27.7 µM

COC(=O)[C@@]1(O)C[C@H]2O[C@]1(C)n1c3ccccc3c3c4c(c5c6ccccc6n2c5c31)C(=O)NC4
GI50 (SF-268 CNS): 0.63 µM
TGI (SF-268 CNS): 3.17 µM
GI50 (TK-10 renal): 0.0284 µM
TGI (TK-10 renal): 1.39 µM
GI50 (CAKI-1 renal): 0.0149 µM
TGI (CAKI-1 renal): 0.217 µM
GI50 (MDA-MB-435): 0.0745 µM
TGI (MDA-MB-435): 1.6 µM
GI50 (MCF7 breast): 0.194 µM
TGI (MCF7 breast): 4.34 µM
GI50 (A549 NSCLC): 0.24 µM
TGI (A549 NSCLC): 2.85 µM
GI50 (EKVX NSCLC): 1.92 µM
TGI (EKVX NSCLC): 7.58 µM
GI50 (ACHN renal): 0.0368 µM
TGI (ACHN renal): 3.07 µM
GI50 (HCT-116 colon): 0.102 µM
TGI (HCT-116 colon): 2.24 µM
GI50 (KM12 colon): 0.0269 µM
TGI (KM12 colon): 1.07 µM

CCOC(=O)C#Cc1c(CC(=O)OCC)nnn1[C@H]1O[C@@H](CO)[C@@H]2OC(C)(C)O[C@@H]21
GI50 (SF-268 CNS): 16.3 µM
TGI (SF-268 CNS): 34.6 µM
GI50 (TK-10 renal): 1.76 µM
TGI (TK-10 renal): 3.39 µM
GI50 (CAKI-1 renal): 1.71 µM
TGI (CAKI-1 renal): 3.15 µM
GI50 (MDA-MB-435): 5.4 µM
TGI (MDA-MB-435): 18.3 µM
GI50 (MCF7 breast): 3.15 µM
TGI (MCF7 breast): 14.9 µM
GI50 (A549 NSCLC): 23.7 µM
TGI (A549 NSCLC): 41.9 µM
GI50 (EKVX NSCLC): 17.3 µM
TGI (EKVX NSCLC): 35.1 µM
GI50 (ACHN renal): 1.97 µM
TGI (ACHN renal): 4.11 µM
GI50 (HCT-116 colon): 2.06 µM
TGI (HCT-116 colon): 4.1 µM
GI50 (KM12 colon): 16.4 µM
TGI (KM12 colon): 32.7 µM

Oc1ccc(N=Nc2ccc(N=Nc3ccccc3)cc2)cc1
GI50 (SF-268 CNS): 1.63 µM
TGI (SF-268 CNS): 11.8 µM
GI50 (TK-10 renal): 1.98 µM
TGI (TK-10 renal): 5.55 µM
GI50 (CAKI-1 renal): 1.45 µM
TGI (CAKI-1 renal): 4.12 µM
GI50 (MDA-MB-435): 2.96 µM
TGI (MDA-MB-435): 14.7 µM
GI50 (MCF7 breast): 1.5 µM
TGI (MCF7 breast): 6.86 µM
GI50 (A549 NSCLC): 2.14 µM
TGI (A549 NSCLC): 12 µM
GI50 (EKVX NSCLC): 2.49 µM
TGI (EKVX NSCLC): 12.5 µM
GI50 (ACHN renal): 1.49 µM
TGI (ACHN renal): 5.59 µM
GI50 (HCT-116 colon): 1.99 µM
TGI (HCT-116 colon): 10.1 µM
GI50 (KM12 colon): 2.98 µM
TGI (KM12 colon): 16.6 µM

CC(C)C[C@@H]1NC(=O)[C@@H]2CCCN2C(=O)[C@@H]2CCCN2C(=O)[C@H](CC(C)C)NC(=O)[C@H](CO)NC(=O)[C@H](CCCCN)NC(=O)[C@H]([C@H](C)O)NC(=O)[C@@H]2CCCC[C@@H](NC1=O)C(=O)N[C@@H](Cc1ccccc1)C(=O)N1CCC[C@H]1C(=O)N[C@@H](CC(=O)O)C(=O)NCC(=O)N[C@@H](CCCN=C(N)N)C(=O)N2
GI50 (SF-268 CNS): > 50 µM
TGI (SF-268 CNS): > 50 µM
GI50 (TK-10 renal): > 50 µM
TGI (TK-10 renal): > 50 µM
GI50 (CAKI-1 renal): > 50 µM
TGI (CAKI-1 renal): > 50 µM
GI50 (MDA-MB-435): > 50 µM
TGI (MDA-MB-435): > 50 µM
GI50 (MCF7 breast): > 50 µM
TGI (MCF7 breast): > 50 µM
GI50 (A549 NSCLC): > 50 µM
TGI (A549 NSCLC): > 50 µM
GI50 (EKVX NSCLC): > 50 µM
TGI (EKVX NSCLC): > 50 µM
GI50 (ACHN renal): > 50 µM
TGI (ACHN renal): > 50 µM
GI50 (HCT-116 colon): > 50 µM
TGI (HCT-116 colon): > 50 µM
GI50 (KM12 colon): > 50 µM
TGI (KM12 colon): > 50 µM

CCCCCN(CCCCC)CC(O)c1cc2c(c3ccccc13)CCCC2 (stereo not given)
GI50 (SF-268 CNS): 11.3 µM and 16.5 µM
TGI (SF-268 CNS): 23.9 µM and 36.8 µM
GI50 (TK-10 renal): 10.6 µM and 18.2 µM
TGI (TK-10 renal): 22.9 µM and 37.9 µM
GI50 (CAKI-1 renal): 3.44 µM and 4.29 µM
TGI (CAKI-1 renal): 10.9 µM and 20.2 µM
GI50 (MDA-MB-435): 7.68 µM and 13.2 µM
TGI (MDA-MB-435): 21.9 µM and 36.5 µM
GI50 (MCF7 breast): 3.65 µM and 4.63 µM
TGI (MCF7 breast): 14.1 µM and 16.7 µM
GI50 (A549 NSCLC): 9.87 µM and 12.3 µM
TGI (A549 NSCLC): 22.8 µM and 29.7 µM
GI50 (EKVX NSCLC): 4.92 µM
TGI (EKVX NSCLC): 17.7 µM
GI50 (ACHN renal): 5.03 µM and 8.43 µM
TGI (ACHN renal): 17.9 µM and 22.6 µM
GI50 (HCT-116 colon): 2.7 µM and 2.24 µM
TGI (HCT-116 colon): 12.8 µM and 13.1 µM
GI50 (KM12 colon): 3.34 µM and 6.95 µM
TGI (KM12 colon): 12.3 µM and 21.5 µM

OC(CNC1CCCC1)Cn1c2ccccc2c2ccccc21 (stereo not given)
GI50 (SF-268 CNS): 27 µM
TGI (SF-268 CNS): 80.4 µM
GI50 (TK-10 renal): 27.5 µM
TGI (TK-10 renal): > 100 µM
GI50 (CAKI-1 renal): > 100 µM
TGI (CAKI-1 renal): > 100 µM
GI50 (MDA-MB-435): > 100 µM
TGI (MDA-MB-435): > 100 µM
GI50 (MCF7 breast): > 100 µM
TGI (MCF7 breast): > 100 µM
GI50 (A549 NSCLC): > 100 µM
TGI (A549 NSCLC): > 100 µM
GI50 (EKVX NSCLC): 42.3 µM
TGI (EKVX NSCLC): > 100 µM
GI50 (ACHN renal): 39.6 µM
TGI (ACHN renal): > 100 µM
GI50 (HCT-116 colon): 67.3 µM
TGI (HCT-116 colon): > 100 µM
GI50 (KM12 colon): > 100 µM
TGI (KM12 colon): > 100 µM

C[C@@H]1C[C@@]2(O[C@@H]2C)C(=O)O[C@@H]2CCN3CC=C(COC(=O)[C@]1(C)O)[C@H]23
TGI (SF-268 CNS): > 100 µM
TGI (TK-10 renal): > 100 µM
TGI (CAKI-1 renal): > 100 µM
TGI (MDA-MB-435): > 100 µM
TGI (MCF7 breast): > 100 µM
TGI (A549 NSCLC): > 100 µM
TGI (EKVX NSCLC): > 100 µM
TGI (ACHN renal): > 100 µM
TGI (HCT-116 colon): > 100 µM
TGI (KM12 colon): > 100 µM
